“Also recorded” adds a separate entry of the source.
Test system: mouse primary myoblasts
Experiment: Scratch migration assay, mouse primary myoblasts
Type: cell-based
Details: primary myoblasts; MDC at 50 μm
Description: Cellular polarization is indicative of increased motility (de Forges et al., 2012). Scratch assays were used to test whether Wnt7a and Fzd7 polarization affect cell motility. To exclude effects on the localization of cells arising from altered rates of proliferation, cells were treated with Mitomycin-C.
Fzd7 deficient cells migrated 59% less compared to heterozygous myoblasts and expression of Fzd7-Flag in Fzd7 knockout myoblasts restored migration to normal levels (FIG. 2D). […] To investigate whether the stimulation of myoblast migration is dose dependent, different concentrations of Wnt7a and Wnt3a were tested for their effect on migration.
Following plasmid transfection or application of Wnts (R&D Systems), the cells were treated with Mitomycin-C for 2 h (50 μg/mL). Subsequently, the monolayer of cells was scraped in a straight line. The plates were then extensively washed with culture medium and incubated for 24 h before analysis. Analysis was performed using DAPI staining after matching the reference points and enumeration of DAPI-stained nuclei in the scar was performed. Unless otherwise indicated, Wnt7a and Wnt3a were used at a concentration of 100 ng/mL in scratch assays. Monodansylcadaverine (MDC, 30432, Sigma) was used in scratch assays at a concentration of 50 μm.

CN(C)c1cccc2c(S(=O)(=O)NCCCCCN)cccc12 [monodansylcadaverine, reference compound]
effect on Wnt7a mediated migration in scratch assays: prevents Wnt7a induced migration; also recorded: prevented Wnt7a mediated migration
